How the values were obtained:
[1] = tested on: post-operative pain (skin incision of the hind paw); assay: Incision model of postoperative pain (mechanical allodynia, von Frey); format: in vivo, rat
Protocol: Paw incision was performed under isoflurane (2-3%) anesthesia and followed procedures previously described (Brennan et al., 1996). Briefly, the plantar aspect of the left hindpaw was placed through a hole in a sterile plastic drape. A 1-cm longitudinal incision was made through the skin and fascia, starting 0.5 cm from the proximal edge of the heel and extending towards the toes, the plantar muscle was elevated and injured longitudinally leaving the muscle origin and insertion points intact. After hemostasis with gentle pressure, the skin was apposed with 2 mattress sutures of 5-0 nylon. Mechanical allodynia was measured using calibrated von Frey filaments (Stoelting, Wood Dale, Ill.) as previously described (Chaplan et al., 1994) in all animals 2 h following surgery. Rats were placed into inverted individual plastic containers (20×12.5×20 cm) on top of a suspended wire mesh grid, and acclimated to the test chambers for 20 min. The von Frey filaments were presented perpendicularly to the plantar surface pointing towards the medial side of the incision (Brennan et al., 1996), and then held in this position for approximately 8 s with enough force to cause a slight bend in the filament. Positive responses included an abrupt withdrawal of the hind paw from the stimulus, or flinching behavior immediately following removal of the stimulus. A 50% paw withdrawal threshold (PWT) was determined using an up-down procedure (Dixon, 1980). Mechanical allodynia was assessed 30 min following i.p. compound administration.

[2] = biological target: T1, human α3β4 nicotinic acetylcholine receptor subtype expressed in HEK-293 cells (Homo sapiens, UniProt P30926+P32297); assay: Calcium flux assay (FLIPR) in HEK-293 cells expressing human α3β4; format: cell-based; details: agonists Compound A and Compound B
T1 construct: expressed in transfected cells
T1 sequence (P32297 32-505): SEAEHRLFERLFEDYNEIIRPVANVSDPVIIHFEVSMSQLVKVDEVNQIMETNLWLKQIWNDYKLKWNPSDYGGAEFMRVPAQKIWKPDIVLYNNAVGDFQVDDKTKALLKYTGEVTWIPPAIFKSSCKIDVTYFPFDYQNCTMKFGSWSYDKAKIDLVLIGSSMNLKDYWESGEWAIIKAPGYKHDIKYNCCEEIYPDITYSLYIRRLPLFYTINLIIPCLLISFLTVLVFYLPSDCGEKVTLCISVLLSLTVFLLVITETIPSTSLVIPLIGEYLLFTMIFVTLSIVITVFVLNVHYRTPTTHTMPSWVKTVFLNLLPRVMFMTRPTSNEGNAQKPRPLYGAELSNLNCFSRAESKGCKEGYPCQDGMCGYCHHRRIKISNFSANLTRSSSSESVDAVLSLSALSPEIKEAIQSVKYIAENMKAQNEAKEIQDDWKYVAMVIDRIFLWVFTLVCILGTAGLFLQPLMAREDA
T1 sequence (P30926 22-498): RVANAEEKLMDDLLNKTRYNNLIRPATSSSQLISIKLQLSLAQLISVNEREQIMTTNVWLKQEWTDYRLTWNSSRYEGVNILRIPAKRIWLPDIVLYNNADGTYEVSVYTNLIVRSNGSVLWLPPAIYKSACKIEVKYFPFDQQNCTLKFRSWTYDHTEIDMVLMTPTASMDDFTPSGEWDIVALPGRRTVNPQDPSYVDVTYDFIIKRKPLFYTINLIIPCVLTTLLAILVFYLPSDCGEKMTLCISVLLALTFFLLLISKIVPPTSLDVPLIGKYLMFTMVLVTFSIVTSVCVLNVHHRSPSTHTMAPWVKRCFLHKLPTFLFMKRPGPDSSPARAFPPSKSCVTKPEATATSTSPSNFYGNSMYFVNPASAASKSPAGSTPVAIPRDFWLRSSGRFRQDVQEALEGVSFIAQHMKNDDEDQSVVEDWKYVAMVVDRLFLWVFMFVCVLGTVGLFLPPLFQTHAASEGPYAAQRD
Protocol: Calcium Flux Assays Using Cells Expressing nAChR Subtypes
Human embryonic kidney (HEK) 293 cells stably expressing human α4β2 or α3β4 combinations are grown to confluency in 162 cm^2 tissue culture flasks in DMEM media supplemented with 10% FBS and 25 μg/ml zeocin and 200 μg/ml hygromycin B. IMR-32 neuroblastoma cells (ATCC) are grown to confluency in 162 cm^2 tissue culture flasks in minimum essential media supplemented with 10% FBS and 1 mM sodium pyruvate, 1% non-essential amino acids and 1% antibiotic-antimycotic. […] Calcium flux was measured using calcium-3 assay kit (Molecular Devices, Sunnyvale, Calif.) or fluo-4 (Invitrogen). […] The cells were loaded with 100 μl of the dye per well and incubated at room temperature for up to one hour for HEK 293 clonal stable cell lines or 30 minutes-45 minutes at 37° C. for IMR-32 cells Fluorescence measurements were read simultaneously from all the wells by a Fluorometic Imaging Plate Reader (FLIPR) at an excitation wavelength of 480 nm and an emission wavelength of 520 nm. Baseline fluorescence was measured for the first 6 seconds at which 3× concentrations of modulator/test compounds were added to the cell plate at 50 μl and incubated for five minutes. The fluorescence intensity was captured every second for the first 1 minute followed by every 5 seconds for an additional 4 minutes. […]

emesis in ferrets = assay: Emesis in ferrets; format: in vivo, ferret
Protocol: Fasted male ferrets (Marshall BioResources, North Rose, N.Y.) weighing between 1.0 and 1.7 kg are used to determine the emetic effects. α4β2 PAM (Compound 1) was administered first and thirty minutes later, Compound A was administered at various doses. […] The percentage of animals that experienced emesis at a given dose was recorded.

## Clc1ccc(OC[C@H]2CCN2)cn1 [Compound A, 5-[(2R)-azetidin-2-ylmethoxy]-2-chloropyridine]
[1]; Compound A 10 nmol/kg combined with Compound 1 (3.5 μmol/kg)
  percent reversal of mechanical allodynia: 22±14%
[1]; Compound A 10 nmol/kg in the presence of Compound 1 (3.5 μmol/kg)
  PWT: 5.0 ± 1.9 g
[1]; Compound A 30 nmol/kg combined with Compound 1 (3.5 μmol/kg)
  percent reversal of mechanical allodynia: 54±16%
[1]; Compound A 30 nmol/kg in the presence of Compound 1 (3.5 μmol/kg)
  PWT: 9.2 ± 2.1 g
[1]; Compound A 100 nmol/kg combined with Compound 1 (3.5 μmol/kg)
  percent reversal of mechanical allodynia: 85±10%
[1]; Compound A 100 nmol/kg in the presence of Compound 1 (3.5 μmol/kg)
  PWT: 13.1 ± 1.2 g
[1]; Compound A alone, 100 nmol/kg
  PWT: 6.0 ± 1.0 g
  percent reversal of mechanical allodynia: 25±8%
[1]; Compound A alone, 300 nmol/kg
  PWT: 12.0 ± 1.6 g
  percent reversal of mechanical allodynia: 75±12%
[1]; Rattus norvegicus, Compound A alone, read-out: ED50 (reversal of mechanical allodynia)
  ED50: 0.165 µmol/kg
[1]; co-administration of Compound 1
  leftward shift in the DRC of Compound A: 6 fold

## N#Cc1cccc(-c2nc(-c3cccnc3)no2)c1 [Example 1, 3-(3-(pyridin-3-yl)-1,2,4-oxadiazol-5-yl)benzonitrile]
[2]
  effect of the PAM on the concentration responses to the agonists: unable to affect the concentration responses to the agonists
[1]; Compound 1 alone, up to 35 μmol/kg, i.p.
  alteration of PWT of the injured paw: produced no alteration of PWT
Emesis in ferrets; Compound 1 3.5 μmol/kg with various doses of Compound A
  effect on the dose response curve of Compound A for emesis: does not shift the dose response curve of Compound A
Emesis in ferrets; alone
  emesis: does not cause emesis

Source: patent US9040568B2, “Pharmaceutical compositions for the treatment of pain” (AbbVie Inc., priority 2009, dated 2015)
